Some results are limits rather than exact numbers.

The target in this assay is T1, His-tagged full-length RSK2 (RPS6KA3) (Homo sapiens, UniProt P51812).
T1 construct: His-tagged full-length RSK2 (RPS6KA3, Invitrogen PV3323); His; purchased Invitrogen PV3323
T1 sequence (P51812 whole entry): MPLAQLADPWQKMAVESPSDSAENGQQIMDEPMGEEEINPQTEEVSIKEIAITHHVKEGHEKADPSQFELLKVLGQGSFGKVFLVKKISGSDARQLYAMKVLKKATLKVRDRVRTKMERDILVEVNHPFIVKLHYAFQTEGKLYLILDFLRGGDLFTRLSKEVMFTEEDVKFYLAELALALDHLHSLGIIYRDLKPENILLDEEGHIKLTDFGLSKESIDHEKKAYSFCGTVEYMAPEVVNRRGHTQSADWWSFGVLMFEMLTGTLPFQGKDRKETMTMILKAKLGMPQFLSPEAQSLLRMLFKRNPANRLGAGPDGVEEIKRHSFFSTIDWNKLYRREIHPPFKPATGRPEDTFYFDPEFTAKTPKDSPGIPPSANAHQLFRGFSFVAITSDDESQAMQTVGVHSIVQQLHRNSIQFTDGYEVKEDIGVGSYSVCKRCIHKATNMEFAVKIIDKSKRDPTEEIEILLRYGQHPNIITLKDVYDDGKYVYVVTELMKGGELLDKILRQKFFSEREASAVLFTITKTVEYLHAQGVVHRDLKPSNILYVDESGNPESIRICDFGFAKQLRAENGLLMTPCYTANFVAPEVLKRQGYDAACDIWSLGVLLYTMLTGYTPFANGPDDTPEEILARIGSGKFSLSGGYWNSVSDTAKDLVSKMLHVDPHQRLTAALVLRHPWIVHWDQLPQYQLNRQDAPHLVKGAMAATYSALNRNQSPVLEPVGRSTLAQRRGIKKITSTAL
Briefly: RSK2 Omnia Assay for compound IC50 determination. Format: biochemical. As to conditions: ATP 15 μM, n=2, read-out: Mean RSK2 Biochem IC50. A digest of the protocol: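 Initial-rate slopes from continuous kinetic reads were fitted to a four-parameter equation for IC50 (n=2). Ki was then derived by Cheng-Prusoff assuming ATP-competitive inhibition. Reactions contained 15 μM ATP (Km 16.3 μM), 5 μM Omnia ST Peptide 6, and […] in 50 mM HEPES pH 7.5, 10 mM MgCl2, 1 mM DTT, 1% DMSO. Compounds spanned 11 threefold steps, […] final.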
Consider `COc1ccc(N2C(=O)[C@@H](C)N(C3CCCCC3)c3nc(Nc4cnc5[nH]ncc5c4)ncc32)cc1OC` [compound 153, (7R)-8-cyclohexyl-5-(3,4-dimethoxyphenyl)-7-methyl-2-(1H-pyrazolo[3,4-B]pyridin-5-ylamino)-7,8-dihydropteridin-6(5H)-one], for which the IC50 is not above 100 nM.
Then `C[C@@H]1C(=O)N(c2cccnc2)c2cnc(Nc3cnc4[nH]ncc4c3)nc2N1C1CCCCC1` [compound 154, (7R)-8-cyclohexyl-7-methyl-2-(1H-pyrazolo[3,4-b]pyridin-5-ylamino)-5-(pyridin-3-yl)-7,8-dihydropteridin-6(5H)-one], with not above 100 nM; and `C[C@@H]1C(=O)N(c2cccc(C#N)c2)c2cnc(Nc3ccc(C(=O)O)cc3)nc2N1C1CCCCC1` [compound 155, 4-{[(7R)-5-(3-cyanophenyl)-8-cyclohexyl-7-methyl-6-oxo-5,6,7,8-tetrahydropteridin-2-yl]amino}benzoic acid], with not above 100 nM; and `C[C@@H]1C(=O)N(c2cccc(C#N)c2)c2cnc(Nc3ccccc3)nc2N1C1CCCCC1` [compound 156, 3-[(7R)-8-cyclohexyl-7-methyl-6-oxo-2-(phenylamino)-7,8-dihydropteridin-5(6H)-yl]benzonitrile], with 100 to 1000 nM.
Then `C[C@@H]1C(=O)N(c2cccc(C#N)c2)c2cnc(Nc3ccc4[nH]nc(C#N)c4c3)nc2N1C1CCCCC1` [compound 157, 5-{[(7R)-5-(3-cyanophenyl)-8-cyclohexyl-7-methyl-6-oxo-5,6,7,8-tetrahydropteridin-2-yl]amino}-1H-indazole-3-carbonitrile], with 100 to 1000 nM; and `C[C@@H]1C(=O)N(c2cccc(C#N)c2)c2cnc(Nc3cc(F)c(O)c(F)c3)nc2N1C1CCCCC1` [compound 158, 3-[(7R)-8-cyclohexyl-2-[(3,5-difluoro-4-hydroxyphenyl)amino]-7-methyl-6-oxo-7,8-dihydropteridin-5(6H)-yl]benzonitrile], with not above 100 nM.
Then `COc1ccc(N2C(=O)[C@@H](C)N(C3CCCCC3)c3nc(Nc4cc(F)c(O)c(F)c4)ncc32)cc1OC` [compound 159], with not above 100 nM; and `C[C@@H]1C(=O)N(c2cccnc2)c2cnc(Nc3cc(F)c(O)c(F)c3)nc2N1C1CCCCC1` [compound 160, (7R)-8-cyclohexyl-2-[(3,5-difluoro-4-hydroxyphenyl)amino]-7-methyl-5-(pyridin-3-yl)-7,8-dihydropteridin-(5H)-one.], with not above 100 nM.
In the case of `C[C@@H]1C(=O)N(c2cccc(C#N)c2)c2cnc(Nc3ccc4c(c3)CNC4=O)nc2N1C1CCCCC1` [compound 161], the IC50 was not above 100 nM.
For `COc1ccc(N2C(=O)[C@@H](C)N(C3CCCCC3)c3nc(NCc4ccncc4)ncc32)cc1OC` [compound 162], the IC50 was more than 1000 nM.
Then `COc1ccc(N2C(=O)[C@@H](C)N(C3CCCCC3)c3nc(NCc4cn[nH]c4)ncc32)cc1OC` [compound 163], with more than 1000 nM.
To `COc1ccc(N2C(=O)[C@@H](C)N(C3CCCCC3)c3nc(Nc4cnc5[nH]ncc5c4)ncc32)cc1C#N` [compound 164, 5-[(7R)-8-cyclohexyl-7-methyl-6-oxo-2-(1H-pyrazolo[3,4-b]pyridin-5-ylamino)-7,8-dihydropteridin-5(6H)-yl]-2-methoxybenzonitrile] belongs not above 100 nM; to `COc1ccc(N2C(=O)[C@@H](C)N(C3CCCCC3)c3nc(Nc4ccc5[nH]c(=O)oc5c4)ncc32)cc1C#N` [compound 165, 5-[(7R)-8-cyclohexyl-7-methyl-6-oxo-2-[(2-oxo-2,3-dihydro-1,3-benzoxazol-6-yl)amino]-7,8-dihydropteridin-5(6H)-yl]-2-methoxybenzonitrile], not above 100 nM.
Turning to `C[C@@H]1C(=O)N(c2cccc(C#N)c2)c2cnc(Nc3ccc4c(=O)[nH]oc4c3)nc2N1C1CCCCC1` [compound 166, 3-[(7R)-8-cyclohexyl-7-methyl-6-oxo-2-[(3-oxo-2,3-dihydro-1,2-benzoxazol-6-yl)amino]-7,8-dihydropteridin-5(6H)-yl]benzonitrile], the concentration for half-maximal inhibition (IC50) was not above 100 nM.
For `C[C@@H]1C(=O)N(c2cccc(C#N)c2)c2cnc(Nc3ccc4[nH]ncc4n3)nc2N1C1CCCCC1` [compound 167, 3-[(7R)-8-cyclohexyl-7-methyl-6-oxo-2-(1H-pyrazolo[4,3-b]pyridin-5-ylamino)-7,8-dihydropteridin-5(6H)-yl]benzonitrile], the IC50 lay within 100 to 1000 nM.
To `C[C@@H]1C(=O)N(c2cccc(C#N)c2)c2cnc(Nc3ccc(O)cn3)nc2N1C1CCCCC1` [compound 168, 3-[(7R)-8-cyclohexyl-2-[(5-hydroxypyridin-2-yl)amino]-7-methyl-6-oxo-7,8-dihydropteridin-5(6H)-yl]benzonitrile] belongs 100 to 1000 nM; to `C[C@@H]1C(=O)N(c2cccc(C#N)c2)c2cnc(Nc3cc(F)c4[nH]c(=O)oc4c3)nc2N1C1CCCCC1` [compound 169, 3-[(7R)-8-cyclohexyl-2-[(4-fluoro-2-oxo-2,3-dihydro-1,3-benzoxazol-6-yl)amino]-7-methyl-6-oxo-7,8-dihydropteridin-5(6H)-yl]benzonitrile], not above 100 nM.
In the case of `COc1ccc(N2C(=O)[C@@H](C)N(C3CCCCC3)c3nc(NCCc4cn[nH]c4)ncc32)cc1OC` [compound 170], the IC50 was more than 1000 nM.
To `C[C@@H]1C(=O)N(c2cccc(C#N)c2)c2cnc(Nc3ccc(CO)cc3)nc2N1C1CCCCC1` [compound 171] belongs not above 100 nM; to `C[C@@H]1C(=O)N(c2cccc(C#N)c2)c2cnc(Nc3cnc4[nH]c(=O)oc4c3)nc2N1C1CCCCC1` [compound 172, 3-[(7R)-8-cyclohexyl-7-methyl-6-oxo-2-[(2-oxo-2,3-dihydro[1,3]oxazolo[4,5-b]pyridin-6-yl)amino]-7,8-dihydropteridin-5(6H)-yl]benzonitrile], not above 100 nM; to `C[C@@H]1C(=O)N(c2ccc(N3CCN(C)CC3)c(C#N)c2)c2cnc(Nc3cc(F)c4[nH]ncc4c3)nc2N1C1CCCCC1` [compound 173, 5-[(7R)-8-cyclohexyl-2-[(7-fluoro-1H-indazol-5-yl)amino]-7-methyl-6-oxo-7,8-dihydropteridin-5(6H)-yl]-2-(4-methylpiperazin-1-yl)benzonitrile], not above 100 nM.
Then `C[C@@H]1C(=O)N(c2cccc(C#N)c2)c2cnc(Nc3ccc4c(c3)CS(=O)(=O)N4)nc2N1C1CCCCC1` [compound 174, 3-[(7R)-8-cyclohexyl-2-[(2,2-dioxido-1,3-dihydro-2,1-benzothiazol-5-yl)amino]-7-methyl-6-oxo-7,8-dihydropteridin-5(6H)-yl]benzonitrile], with not above 100 nM.
To `C[C@@H]1C(=O)N(c2ccn(C)c(=O)c2)c2cnc(Nc3cnc4[nH]ncc4c3)nc2N1C1CCCCC1` [compound 175, (7R)-8-cyclohexyl-7-methyl-5-(1-methyl-2-oxo-1,2-dihydropyridin-4-yl)-2-(1H-pyrazolo[3,4-b]pyridin-5-ylamino)-7,8-dihydropteridin-6(5H)-one] belongs not above 100 nM; to `C[C@@H]1C(=O)N(c2ccn(C)c(=O)c2)c2cnc(Nc3cc(F)c4[nH]ncc4c3)nc2N1C1CCCCC1` [compound 176, (7R)-8-cyclohexyl-2-[(7-fluoro-1H-indazol-5-yl)amino]-7-methyl-5-(1-methyl-2-oxo-1,2-dihydropyridin-4-yl)-7,8-dihydropteridin-6(5H)-one], not above 100 nM; to `COC(=O)c1cc(N2C(=O)[C@@H](C)N(C3CCCCC3)c3nc(Nc4ccc5[nH]ncc5c4)ncc32)cs1` [compound 177, methyl 4-[(7R)-8-cyclohexyl-2-(1H-indazol-5-ylamino)-7-methyl-6-oxo-7,8-dihydropteridin-5(6H)-yl]thiophene-2-carboxylate], not above 100 nM.
In the case of `CC1C(=O)N(c2ccccc2)c2cnc(Nc3ccc4c(c3)CC(=O)N4)nc2N1c1ccccc1` (centres unmarked) [compound 179], the IC50 was 100 to 1000 nM.
To `C[C@@H]1C(=O)N(c2cccc(C#N)c2)c2cnc(Nc3cc(F)c4[nH]ncc4c3)nc2N1c1ccc(F)cc1` [compound 180] belongs not above 100 nM.
Consider `COc1cccc(N2c3nc(Nc4cc(F)c5[nH]ncc5c4)ncc3N(c3cccc(C#N)c3)C(=O)[C@H]2C)c1` [compound 181, 3-[(7R)-2-[(7-fluoro-1H-indazol-5-yl)amino]-8-(3-methoxyphenyl)-7-methyl-6-oxo-7,8-dihydropteridin-5(6H)-yl]benzonitrile], for which the IC50 was not above 100 nM.
To `COc1ccc(N2c3nc(Nc4cc(F)c5[nH]ncc5c4)ncc3N(c3cccc(C#N)c3)C(=O)[C@H]2C)cc1` [compound 182, 3-[(7R)-2-[(7-fluoro-1H-indazol-5-yl)amino]-8-(4-methoxyphenyl)-7-methyl-6-oxo-7,8-dihydropteridin-5(6H)-yl]benzonitrile] belongs not above 100 nM; to `C[C@@H]1C(=O)N(c2cccc(C#N)c2)c2cnc(Nc3cc(F)c4[nH]ncc4c3)nc2N1c1cccc(F)c1` [compound 183, 3-[(7R)-2-[(7-fluoro-1H-indazol-5-yl)amino]-8-(3-fluorophenyl)-7-methyl-6-oxo-7,8-dihydropteridin-5(6H)-yl]benzonitrile], not above 100 nM; to `C[C@@H]1C(=O)N(c2cccc(C#N)c2)c2cnc(Nc3ccc4[nH]ncc4c3)nc2N1C1CCOCC1` [compound 184, 3-[(7R)-2-(1H-indazol-5-ylamino)-7-methyl-6-oxo-8-(tetrahydro-2H-pyran-4-yl)-7,8-dihydropteridin-5(6H)-yl]benzonitrile], not above 100 nM.
To `C[C@@H]1C(=O)N(c2cccc(C#N)c2)c2cnc(Nc3ccc4[nH]ncc4c3F)nc2N1C1CCOCC1` [compound 185, 3-[(7R)-2-[(4-fluoro-1H-indazol-5-yl)amino]-7-methyl-6-oxo-8-(tetrahydro-2H-pyran-4-yl)-7,8-dihydropteridin-5(6H)-yl]benzonitrile] belongs not above 100 nM.

(Values after patent US9351974B2, “Substituted pteridinones for the treatment of cancer” (OSI Pharmaceuticals, LLC, priority 2011, dated 2016).)
